Test results published in patent US8895079B2, “Combinations of botanical extracts for promoting cardiovascular health” (National Research Council of Canada, priority 2005, dated 2014).
Marks after values point to notes of the source that are not given here.

Legend:
[1] = test system: hamsters fed an atherogenic control diet; assay: Example 1: tissue weight relative to body weight and histopathological examination of organs; type: in vivo, Male Golden Syrian hamsters
Protocol: Histopathological testing and examination of gross and microscopic examination of thin sections of the various organs were conducted by a certified pathologist. There were no significant changes in the appearance or weight of brain, lung, heart, spleen and kidney. However, the livers of control animals were observably yellowish and heavier than those of animals treated with BBRCI or plant stanols, or the combination of either. Table 3 summarizes the effect of BBRCI and plant stanols on the percent tissue weight relative to body weight.

intestinal ABCG5 mRNA = assay: Example 1: intestinal ABCG5 mRNA expression, real-time PCR; type: in vivo, Male Golden Syrian hamsters; settings: intestine; relative expression in reference to a housekeeping gene; Example 1, 4 weeks
Protocol: (§1) Experiments were also conducted to determine the effect on the expression of genes associated with cholesterol in the liver and intestine. Total RNA was extracted and mRNA was converted to cDNA. The mRNA expression was measured by real-time PCR with four repeats and calculated as relative expression in reference to internal control of a housekeeping gene for each sample. […] The function of ABCG5 and ABCG8 in the intestine is to transport cholesterol out of enterocytes and back to the intestine for elimination via the feces. […] The observation of our study (Example 1) has provided a strong support to the synergistic action of BBRCI and PS on cholesterol reduction.

intestinal ABCG8 mRNA = assay: Example 1: intestinal ABCG8 mRNA expression, real-time PCR; type: in vivo, Male Golden Syrian hamsters; settings: intestine; relative expression in reference to a housekeeping gene; Example 1, 4 weeks
Protocol: as §1

[2] = test system: hamsters fed a diet containing 0.25% cholesterol; assay: Example 2: five week hamster study, blood lipid levels, 0.25% cholesterol diet, 1% PS; type: in vivo, male Golden Syrian hamsters; settings: BBRCI 100 mg/kg·d and/or PS 1% (w/w)
Protocol: In this example, a controlled, five week animal study was performed. A total of 48 male Golden Syrian hamsters were randomized into 4 groups of 12 and fed isocaloric diets as follows. Hamster husbandry, living and feeding conditions were similar to that used for Example 1. • Control a semi-synthetic casein-corn starch-sucrose diet that contained 0.25% (w/w) cholesterol • BBRCI control diet containing 100 mg/kg·d of BBRCI • PS control diet containing 1% (w/w) PS • BBRCI+PS control diet containing 100 mg/kg·d BBRCI and 1% (w/w) PS One objective of this example was to determine the effects of each intervention on circulating blood lipids including total cholesterol (T-C), high-density-lipoprotein cholesterol (HDL-C), nonHDL-C (which is indicative of LDL-C levels) and triglyceride (TG) profiles when hamsters were fed a diet containing a higher concentration of cholesterol, for example, 0.25% by weight in the diet. Table 6 summarizes the effect on blood lipid levels (values are means±SD, n=12). Data were analyzed by one-way ANOVA followed by Tukey test if significance was detected. A significant difference was indicated by a p<0.05.

[3] = test system: hamsters fed a diet containing 0.25% cholesterol; assay: Example 2: tissue weight to body weight ratio; type: in vivo, male Golden Syrian hamsters; settings: Example 2, 5 weeks; BBRCI 100 mg/kg·d and/or PS 1% (w/w); means±SD, n=12
Protocol: In this example, a controlled, five week animal study was performed. A total of 48 male Golden Syrian hamsters were randomized into 4 groups of 12 and fed isocaloric diets as follows. Hamster husbandry, living and feeding conditions were similar to that used for Example 1. • Control a semi-synthetic casein-corn starch-sucrose diet that contained 0.25% (w/w) cholesterol • BBRCI control diet containing 100 mg/kg·d of BBRCI • PS control diet containing 1% (w/w) PS • BBRCI+PS control diet containing 100 mg/kg·d BBRCI and 1% (w/w) PS Table 7 summarizes the effect on tissue weight to body weight ratio (values are means±SD). Data were analyzed by one-way ANOVA followed by Tukey test when a significant treatment effect was detected. A significant difference was indicated by a p<0.05. […] The combination of BBRCI and PS (BBRCI+PS), however, reduced the average liver weight in a strong, statistically significant, and synergistic manner compared to liver weights in the BBRCI and PS groups.

[4] = test system: hamsters fed a diet containing 0.25% cholesterol; assay: Example 3: five week hamster study, blood lipid levels, 0.25% cholesterol diet, 0.5% PS; type: in vivo, male Golden Syrian hamsters; settings: BBRCI 100 mg/kg·d and/or PS 0.5% (w/w)
Protocol: In this example, a controlled, five week animal study was performed. Four randomized groups of 12 or 6 male Golden Syrian hamsters were fed isocaloric diets as follows. The dosage of PS was reduced from 1% to 0.5% (w/w) in the diet. Hamster husbandry, living and feeding conditions were similar to that in Example 1. • Control a semi-synthetic casein-corn starch-sucrose diet that contained 0.25% (w/w) cholesterol • BBRCI control diet containing 100 mg/kg·d of BBRCI • PS control diet containing 0.5% (w/w) PS • BBRCI+PS control diet containing 100 mg/kg·d BBRCI and 0.5% (w/w) PS One objective of this example was to determine the effects of each intervention on circulating blood lipids including total cholesterol (T-C), high-density-lipoprotein cholesterol (HDL-C), nonHDL-C (which is indicative of LDL-C levels) and triglyceride (TG) profiles. Table 8 summarizes the effect on blood lipid levels (values are means±SD, n=12). Data were analyzed by one-way ANOVA followed by Tukey test if significance was detected. A significant difference was indicated by a p<0.05. […] When BBRCI and PS were given to hamsters simultaneously, significant synergistic actions were observed on […] and TG levels. A synergistic action of BBRCI and PS was also observed on the ratio of HDL-C and nonHDL-C.

[5] = 0.25% cholesterol diet, 5 weeks, means±SD, n=12
[6] = 0.25% cholesterol diet, 5 weeks, means±SD

Q: How did the “Liver, percent tissue weight relative to body weight” value ([1]; Example 1, 4 weeks, BBRCI 100 mg/kg·d and/or PS 1% (w/w)) turn out when `COc1ccc2cc3[n+](cc2c1OC)CCc1cc2c(cc1-3)OCO2` [BBRCI, Berberine chloride] was run?
A: 4.4 ± 0.4^b percent

Q: What about the “appearance of fatty liver” value ([1]; Example 1, compared to the livers of the control animals) of the same compound?
A: markedly reduced the appearance of fatty liver

Q: And the “ABCG5 mRNA expression” value (intestinal ABCG5 mRNA)?
A: 2.37 ± 0.70^a

Q: What about the “ABCG8 mRNA expression” value (intestinal ABCG8 mRNA) of the same compound?
A: 1.33 ± 0.45^a

Q: And the “HDL-C Concentration” value [2, 5]?
A: 93.1 ± 27.1^ab mg/dl

Q: What about the “T-C Concentration” value [2, 5] of the same compound?
A: 264.7 ± 49.8^a mg/dl

Q: What about the “TG Concentration” value [2, 5] of the same compound?
A: 549.1 ± 225.3^a mg/dl

Q: And the “nonHDL-C Concentration” value ([2]; 0.25% cholesterol diet, 5 weeks, n=12)?
A: 173.5 ± 66.5^a mg/dl

Q: What about the “HDL-C % difference from Control” value ([2]; Example 2, 5 weeks) of the same compound?
A: 1.7%

Q: And the “HDL-C/nonHDL-C % difference from Control” value ([2]; Example 2, 5 weeks)?
A: 29%

Q: And the “T-C % difference from Control” value ([2]; Example 2, 5 weeks)?
A: −7.8%

Q: What about the “TG % difference from Control” value ([2]; Example 2, 5 weeks) of the same compound?
A: −0.2%

Q: And the “nonHDL-C % difference from Control” value ([2]; Example 2, 5 weeks)?
A: −11.1%

Q: And the HDL-C/nonHDL-C ([2]; ratio, 0.25% cholesterol diet, 5 weeks, n=12)?
A: 0.66 ± 0.41^ab

Q: And the “Heart, tissue weight to body weight ratio” value [3]?
A: 0.37 ± 0.03

Q: And the “Liver, tissue weight to body weight ratio” value [3]?
A: 4.67 ± 0.38^ab

Q: And the “Right kidney, tissue weight to body weight ratio” value [3]?
A: 0.35 ± 0.03

Q: And the “nonHDL-C Concentration” value ([4]; 0.25% cholesterol diet, 5 weeks)?
A: 173.5 ± 66.5^ab mg/dl

Q: And the “HDL-C Concentration” value [4, 6]?
A: 93.1 ± 27.1 mg/dL

Q: And the “T-C Concentration” value [4, 6]?
A: 264.7 ± 49.8^a mg/dl

Q: What about the “TG Concentration” value [4, 6] of the same compound?
A: 549.1 ± 225.3^a mg/dl

Q: And the “HDL-C % difference from Control” value ([4]; Example 3, 5 weeks)?
A: 1.7%

Q: What about the “HDL-C/nonHDL-C % difference from Control” value ([4]; Example 3, 5 weeks) of the same compound?
A: 29%

Q: What about the “T-C % difference from Control” value ([4]; Example 3, 5 weeks) of the same compound?
A: −7.8%

Q: What about the “TG % difference from Control” value ([4]; Example 3, 5 weeks) of the same compound?
A: −0.2%

Q: And the “nonHDL-C % difference from Control” value ([4]; Example 3, 5 weeks)?
A: −11.1%

Q: What about the HDL-C/nonHDL-C ([4]; ratio, 0.25% cholesterol diet, 5 weeks) of the same compound?
A: 0.66 ± 0.41^b
